Source: patent publication US9763957B2, “Autotaxin inhibitors” (Novartis AG, priority 2013, dated 2017)

What follows are compounds tested against Recombinant human ATX (Homo sapiens (Human), UniProt Q13822) (assay: ATX inhibition assay (choline release, Amplex Red fluorescence)). Conditions: ATX 10 nM, LPC 18:1 10 μM, 37° C., 20 min pre-incubation; mean of n≧2.
Type: biochemical
Procedure, shortened: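 Activity was taken from the slope of resorufin fluorescence (530/590 nm, read every 2 min for 40 min at 37 °C) produced by choline liberated from 10 μM oleoyl LPC.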

IC50	Compound
1440 nM	Cc1nnc(CC2CCN(C(=O)/C=C/c3ccc(Cl)cc3Cn3nccn3)CC2)o1 [Example 75, (E)-3-(2-((2H-1,2,3-Triazol-2-yl)methyl)-4-chlorophenyl)-1-(4-((5-methyl-1,3,4-oxadiazol-2-yl)methyl)piperidin-1-yl)prop-2-en-1-one]
2 nM	Cc1nnn(Cc2cc(C(F)(F)F)ccc2CCC(=O)N2CCC(CCCCCc3c[nH]nn3)CC2)n1 [Example 153, 1-(4-(5-(1H-1,2,3-Triazol-4-yl)pentyl)piperidin-1-yl)-3-(2-((5-methyl-2H-tetrazol-2-yl)methyl)-4-(trifluoromethyl)phenyl)propan-1-one]
436 nM	Cc1nnn(Cc2cc(F)c(F)cc2/C=C/C(=O)N2CCC(Cc3nnc(C)o3)CC2)n1 [Example 42, (E)-3-(4,5-Difluoro-2-((5-methyl-2H-tetrazol-2-yl)methyl)phenyl)-1-(4-((5-methyl-1,3,4-oxadiazol-2-yl)methyl)piperidin-1-yl)prop-2-en-1-one]
378 nM	Cc1nnn(Cc2cc(Cl)ccc2/C=C/C(=O)N2CCC[C@H]2c2nnc(C)o2)n1 [Example 8, (S,E)-3-(4-Chloro-2-((5-methyl-2H-tetrazol-2-yl)methyl)phenyl)-1-(2-(5-methyl-1,3,4-oxadiazol-2-yl)pyrrolidin-1-yl)prop-2-en-1-one]
846 nM	COc1ccc(/C=C/C(=O)N2CCC(Cc3nnc(C)o3)CC2)c(Cn2nnc(C)n2)c1 [Example 83, (E)-3-(4-Methoxy-2-((5-methyl-2H-tetrazol-2-yl)methyl)phenyl)-1-(4-((5-methyl-1,3,4-oxadiazol-2-yl)methyl)piperidin-1-yl)prop-2-en-1-one]
49 nM	CNC(=O)[C@@H]1CCCN1C(=O)/C=C/c1ccc(C(F)(F)F)cc1Cn1nnc(C)n1 [Example 90, (S,E)-N-Methyl-1-(3-(2-((5-methyl-2H-tetrazol-2-yl)methyl)-4-(trifluoromethyl)phenyl)acryloyl)pyrrolidine-2-carboxamide]
13 nM	Cc1nnn(Cc2cc(C(F)(F)F)ccc2/C=C/C(=O)N2CCC(NCCCCc3c[nH]nn3)CC2)n1 [Example 155, (E)-1-(4-((4-(1H-1,2,3-Triazol-4-yl)butyl)amino)piperidin-1-yl)-3-(2-((5-methyl-2H-tetrazol-2-yl)methyl)-4-(trifluoromethyl)phenyl)prop-2-en-1-one]
8.8 nM	Cc1noc(CC2CCN(C(=O)/C=C/c3ccc(C(F)(F)F)cc3Cn3nnc(C)n3)CC2)n1 [Example 60, (E)-1-(4-((3-Methyl-1,2,4-oxadiazol-5-yl)methyl)piperidin-1-yl)-3-(2-((5-methyl-2H-tetrazol-2-yl)methyl)-4-(trifluoromethyl)phenyl)prop-2-en-1-one]
170 nM	Cc1nnn(Cc2cc(Cl)ccc2/C=C/C(=O)N2CC(Oc3ccc(F)cc3)C2)n1 [Example 130, (E)-3-(4-Chloro-2-((5-methyl-2H-tetrazol-2-yl)methyl)phenyl)-1-(3-(4-fluorophenoxy)azetidin-1-yl)prop-2-en-1-one]
2.4 nM	Cc1nnn(Cc2cc(C(F)(F)F)ccc2OCC(=O)N2CCC(CCCCCc3c[nH]nn3)CC2)n1 [Example 154, 1-(4-(5-(1H-1,2,3-Triazol-4-yl)pentyl)piperidin-1-yl)-2-(2-((5-methyl-2H-tetrazol-2-yl)methyl)-4-(trifluoromethyl)phenoxy)ethanone]
14 nM	Cc1nnn(Cc2cc(Cl)ccc2/C=C/C(=O)N2CCC(Cn3cccn3)CC2)n1 [Example 49.11, (E)-1-(4-((1H-Pyrazol-1-yl)methyl)piperidin-1-yl)-3-(4-chloro-2-((5-methyl-2H-tetrazol-2-yl)methyl)phenyl)prop-2-en-1-one]
22 nM	Cc1nnn(Cc2cc(C(F)(F)F)ccc2/C=C/C(=O)N2CCC(N3CCCC3=O)CC2)n1 [Example 126, (E)-1-(1-(3-(2-((5-Methyl-2H-tetrazol-2-yl)methyl)-4-(trifluoromethyl)phenyl)acryloyl)piperidin-4-yl)pyrrolidin-2-one]
53 nM	CCS(=O)(=O)N1CCN(C(=O)/C=C/c2ccc(C(F)(F)F)cc2Cn2nnc(C)n2)CC1 [Example 102, (E)-1-(4-(Ethylsulfonyl)piperazin-1-yl)-3-(2-((5-methyl-2H-tetrazol-2-yl)methyl)-4-(trifluoromethyl)phenyl)prop-2-en-1-one]
3.9 nM	Cc1nnn(Cc2cc(Cl)ccc2/C=C/C(=O)N2CCN(Cc3noc(C)n3)C[C@H]2C)n1 [Example 104, (R,E)-3-(4-Chloro-2-((5-methyl-2H-tetrazol-2-yl)methyl)phenyl)-1-(2-methyl-4-((5-methyl-1,2,4-oxadiazol-3-yl)methyl)piperazin-1-yl)prop-2-en-1-one]
127 nM	CC(=O)C1CCCN(C(=O)/C=C/c2ccc(Cl)cc2Cn2nnc(C)n2)C1 (centres unmarked) [Example 49.15, (E)-1-(3-Acetylpiperidin-1-yl)-3-(4-chloro-2-((5-methyl-2H-tetrazol-2-yl)methyl)phenyl)prop-2-en-1-one]
3.9 nM	Cc1nnn(Cc2cc(Cl)ccc2/C=C/C(=O)N2CCC(c3nnc(C(C)C)o3)CC2)n1 [Example 100, (E)-3-(4-Chloro-2-((5-methyl-2H-tetrazol-2-yl)methyl)phenyl)-1-(4-(5-isopropyl-1,3,4-oxadiazol-2-yl)piperidin-1-yl)prop-2-en-1-one]
10 nM	Cc1nnn(Cc2cc(C(F)(F)F)ccc2/C=C/C(=O)N2CCN(Cc3noc(C)n3)CC2)n1 [Example 93, (E)-1-(4-((5-Methyl-1,2,4-oxadiazol-3-yl)methyl)piperazin-1-yl)-3-(2-((5-methyl-2H-tetrazol-2-yl)methyl)-4-(trifluoromethyl)phenyl)prop-2-en-1-one]

Further lines, the compound ahead of its results:

Compound	IC50
Cc1nnn(Cc2cc(Cl)ccc2/C=C/C(=O)N2CC[C@@H](c3nnc(C)o3)C2)n1 [Example 7, (R,E)-3-(4-Chloro-2-((5-methyl-2H-tetrazol-2-yl)methyl)phenyl)-1-(3-(5-methyl-1,3,4-oxadiazol-2-yl)pyrrolidin-1-yl)prop-2-en-1-one]	140 nM
Cc1nnn(Cc2cc(Cl)ccc2/C=C/C(=O)N2CCC(c3noc(C)n3)CC2)n1 [Example 19, (E)-3-(4-Chloro-2-((5-methyl-2H-tetrazol-2-yl)methyl)phenyl)-1-(4-(5-methyl-1,2,4-oxadiazol-3-yl)piperidin-1-yl)prop-2-en-1-one]	31 nM
Cc1nnn(Cc2cc(C(F)(F)F)ccc2/C=C/C(=O)N2CCN(Cc3coc(C)n3)CC2)n1 [Example 74, (E)-3-(2-((5-Methyl-2H-tetrazol-2-yl)methyl)-4-(trifluoromethyl)phenyl)-1-(4-((2-methyloxazol-4-yl)methyl)piperazin-1-yl)prop-2-en-1-one]	5.5 nM
Cc1nnn(Cc2cc(C(F)(F)F)ccc2/C=C/C(=O)N2CCCCC2c2noc(C)n2)n1 (single isomer, unassigned) [Example 38b, (R or S, E)-1-(2-(5-methyl-1,2,4-oxadiazol-3-yl)piperidin-1-yl)-3-(2-((5-methyl-2H-tetrazol-2-yl)methyl)-4-(trifluoromethyl)phenyl)prop-2-en-1-one]	410 nM
Cc1nnn(Cc2cc(Cl)ccc2/C=C/C(=O)N2CCC(O)(Cn3cc(C(=O)N4CCOCC4)cn3)CC2)n1 [Example 14, (E)-3-(4-Chloro-2-((5-methyl-2H-tetrazol-2-yl)methyl)phenyl)-1-(4-hydroxy-4-((4-(morpholine-4-carbonyl)-1H-pyrazol-1-yl)methyl)piperidin-1-yl)prop-2-en-1-one]	12 nM
Cc1nnn(Cc2cc(OC(F)F)ccc2/C=C/C(=O)N2CCC(Cc3nnc(C)o3)CC2)n1 [Example 58, (E)-3-(4-(Difluoromethoxy)-2-((5-methyl-2H-tetrazol-2-yl)methyl)phenyl)-1-(4-((5-methyl-1,3,4-oxadiazol-2-yl)methyl)piperidin-1-yl)prop-2-en-1-one]	53 nM
Cc1nnn(Cc2cc(C(F)F)ccc2/C=C/C(=O)N2CCC(c3noc(C)n3)CC2)n1 [Example 55, (E)-3-(4-(Difluoromethyl)-2-((5-methyl-2H-tetrazol-2-yl)methy)phenyl)-1-(4-(5-methyl-1,2,4-oxadiazol-3-yl)piperidin-1-yl)prop-2-en-1-one]	8 nM
Cc1nnn(Cc2cc(C(F)(F)F)ccc2/C=C/C(=O)N2CCCCC2c2noc(C)n2)n1 (single isomer, unassigned) [Example 38a, (R or S, E)-1-(2-(5-Methyl-1,2,4-oxadiazol-3-yl)piperidin-1-yl)-3-(2-((5-methyl-2H-tetrazol-2-yl)methyl)-4-(trifluoromethyl)phenyl)prop-2-en-1-one]	20 nM
CCOC(=O)c1cnn(CC2(O)CCN(C(=O)/C=C/c3ccc(Cl)cc3Cn3nnc(C)n3)CC2)c1 [Example 32, (E)-Ethyl 1-((1-(3-(4-chloro-2-((5-methyl-2H-tetrazol-2-yl)methyl)phenyl)acryloyl)-4-hydroxypiperidin-4-yl)methyl)-1H-pyrazole-4-carboxylate]	3.5 nM
COC[C@@H]1CCCN1C(=O)/C=C/c1ccc(C(F)(F)F)cc1Cn1nnc(C)n1 [Example 111, (S,E)-1-(2-(Methoxymethyl)pyrrolidin-1-yl)-3-(2-((5-methyl-2H-tetrazol-2-yl)methyl)-4-(trifluoromethyl)phenyl)prop-2-en-1-one]	47 nM
Cc1nnn(Cc2ccc(Cl)cc2/C=C/C(=O)N2CCC(Cc3nnc(C)o3)CC2)n1 [Example 43, (E)-3-(5-Chloro-2-((5-methyl-2H-tetrazol-2-yl)methyl)phenyl)-1-(4-((5-methyl-1,3,4-oxadiazol-2-yl)methyl)piperidin-1-yl)prop-2-en-1-one]	2370 nM
Cc1nnn(Cc2cc(Cl)ccc2/C=C/C(=O)N2CCC(O)(Cn3cc(C(=O)N(C)C)cn3)CC2)n1 [Example 15, (E)-1-((1-(3-(4-Chloro-2-((5-methyl-2H-tetrazol-2-yl)methyl)phenyl)acryloyl)-4-hydroxypiperidin-4-yl)methyl)-N,N-dimethyl-1H-pyrazole-4-carboxamide]	62 nM
